Laboratory results published in ChEMBL document CHEMBL1142978, “Probing the anticancer activity of nucleoside analogues: a QSAR model approach using an internally consistent training set” (J Med Chem, 2007).

Test: Cytotoxicity against mouse L1210/0 cells after 48 hrs
Assay type: cell-based
Conditions: Mus musculus, L1210/0, 48 h
`COc1ccccc1-c1ncnc2c1ncn2C[C@@H]1C[C@H](O)c2ccccc21` showed an IC50 greater than 200 µM.
In the case of `C[C@H](O)C1CC(CCn2cnc3c(N)ncnc32)C1(C)C` (stereo partly specified), the IC50 is reported as greater than 200 µM.
Work on `Nc1nc(I)nc2c1ncn2COCCO` yielded an IC50 greater than 200 µM.
`O=c1[nH]c(=O)n([C@H]2C[C@H](O)[C@@H](CO)O2)cc1C(F)(F)F` [TRIFLURIDINE] showed an IC50 of 0.02 µM.
In the case of `COc1ccc(C(=O)/C=C/c2cc(O)nc(O)n2)cc1`, the IC50 is reported as greater than 200 µM.
Compound `Cc1cn([C@@H]2O[C@H](CO)[C@@H](O)[C@@H]2O)c(=O)[nH]c1=O` has an IC50 of 24.4 µM.
In the case of `Nc1ncnc2c1ncn2[C@@H]1CCC[C@H]1CO`, the IC50 is reported as greater than 200 µM.
`C[C@H](O)C1CC(Cn2cnc3c(=O)[nH]cnc32)C1(C)C` (stereo partly specified) showed an IC50 greater than 200 µM.
For `N#Cc1cn([C@H]2C[C@H](O)[C@@H](CO)O2)c(=O)[nH]c1=O`, the IC50 was greater than 200 µM.
Work on `O=c1[nH]c(=O)n([C@H]2C[C@H](O)[C@@H](CO)O2)cc1Br` [BROXURIDINE] yielded an IC50 of 84.7 µM.
Compound `O=c1[nH]c(=O)n(COCCO)cc1I` has an IC50 greater than 200 µM.
In the case of `CC(O)Cn1cnc2c(N)nc(I)nc21` (stereo unspecified), the IC50 is reported as greater than 200 µM.
For `O=c1[nH]c(=O)n(COCCO)cc1[N+](=O)[O-]`, the IC50 was greater than 200 µM.
Compound `O=c1[nH]c(=O)n(CC2CCC(CO)C2)cc1I` (stereo unspecified) has an IC50 greater than 200 µM.
`Nc1ncnc2c1ncn2[C@@H]1C[C@@H]2COC[C@H]2[C@H]1CO` showed an IC50 greater than 200 µM.
With `O=c1[nH]c(=O)n([C@H]2C[C@H](O)[C@@H](CO)O2)cc1/C=C/Br` [BRIVUDINE] the IC50 was 80.8 µM.
For `CC1(C)[C@H](CCO)C[C@@H]1n1cnc2c(Cl)nc(N)nc21`, the IC50 was 105 µM.
With `CS(=O)(=O)Cc1cn([C@H]2C[C@H](O)[C@@H](CO)O2)c(=O)[nH]c1=O` the IC50 was greater than 200 µM.
`Nc1nc(Cl)c2ncn(COCCO)c2n1` showed an IC50 greater than 200 µM.
Work on `Nc1ncnc2c1ncn2CCOCP(=O)(O)O` [ADEFOVIR] yielded an IC50 of 7.45 µM.
Compound `OC[C@@H]1CCC[C@@H]1Cn1cnc2c(Cl)ncnc21` has an IC50 of 52.5 µM.
`C=C(Br)[C@H]1O[C@@H](n2cnc3c(N)ncnc32)[C@@H](O)[C@H]1O` showed an IC50 of 25 µM.
With `Nc1ncnc2c1nnn2C1C[C@H](CO)[C@@H](CO)[C@@H]1CO` (stereo partly specified) the IC50 was greater than 200 µM.
In the case of `CC1(C)[C@@H](Cn2nnc3c(Cl)nc(N)nc32)CC[C@@]1(C)CO`, the IC50 is reported as 44.6 µM.
For `CC(=O)OC(C)Cn1cnc2c(Cl)nc(N)nc21` (stereo unspecified), the IC50 was greater than 200 µM.
Work on `CCCNc1ncnc2c1ncn2C[C@@H]1C[C@H](CO)c2ccccc21` yielded an IC50 greater than 200 µM.
`Nc1nc2c(nc(I)n2COCCO)c(=O)[nH]1` gave an IC50 of 111 µM.
`C[C@H](O)C1CC(Cn2cnc3c(N)ncnc32)C1(C)C` (stereo partly specified) showed an IC50 greater than 200 µM.
In the case of `O=c1[nH]cnc2c1nnn2C[C@H]1CCC[C@H]1CO`, the IC50 is reported as greater than 200 µM.
Compound `OC[C@H]1CCC[C@@H]1n1cnc2c(Cl)ncnc21` has an IC50 greater than 200 µM.
In the case of `OC[C@@H]1C[C@H](Cn2cnc3c(Cl)ncnc32)c2c(-c3ccccc3)nnc(-c3ccccc3)c21`, the IC50 is reported as greater than 200 µM.
Work on `Nc1ncnc2c1ncn2[C@@H]1O[C@H](/C=C\I)[C@H](O)[C@@H]1O` yielded an IC50 of 43 µM.
`CC1(C)[C@@H](Cn2nnc3c(N)nc(N)nc32)CC[C@@]1(C)CO` showed an IC50 greater than 200 µM.
`COC1=C(OCc2ccc([N+](=O)[O-])cc2)C(=O)O/C1=C\Cn1cnc2c(Cl)ncnc21` showed an IC50 of 13.6 µM.
`Nc1nc(N)c2nnn([C@H]3CCCC[C@H]3CO)c2n1` showed an IC50 greater than 200 µM.
Compound `CC(=O)OCCOCn1cnc2c(Cl)nc(I)nc21` has an IC50 of 8.6 µM.
With `CO[C@@H]1OC(n2cc(F)c(=O)[nH]c2=O)[C@H](OC(C)=O)[C@@H](OC(C)=O)[C@H]1F` (stereo partly specified) the IC50 was 34 µM.
`CC#Cc1cn([C@H]2C[C@H](O)[C@@H](CO)O2)c(=O)[nH]c1=O` gave an IC50 greater than 200 µM.
Compound `CC(O)Cn1cnc2c(F)nc(N)nc21` (stereo unspecified) has an IC50 greater than 200 µM.
With `O=c1[nH]c(=O)n([C@@H]2C[C@H](CO)C[C@@H]2CO)cc1I` the IC50 was greater than 200 µM.
In the case of `Nc1ncnc2c1ncn2[C@@H]1O[C@H](CO)[C@H](F)[C@@H]1O`, the IC50 is reported as 5.94 µM.
Compound `COC1=C(OC)/C(=C/CP(=O)(OC)OC)OC1=O` has an IC50 greater than 200 µM.
For `CC1=C(C)C(=O)C(c2cn([C@H]3C[C@H](O)[C@@H](CO)O3)c(=O)[nH]c2=O)=C(C)C1=O`, the IC50 was 174 µM.
Work on `CC1(C)[C@@H](CO)CC[C@@]1(C)Cn1cnc2c(=O)[nH]cnc21` yielded an IC50 greater than 200 µM.
`COC1=C(OC)C(O)(CCn2cnc3c(N)ncnc32)OC1=O` (stereo unspecified) showed an IC50 greater than 200 µM.
For `CC1=C(c2cn([C@H]3C[C@H](O)[C@@H](CO)O3)c(=O)[nH]c2=O)C(=O)c2ccccc2C1=O`, the IC50 was 68.8 µM.
`CC1(C)[C@@H](Cn2cnc3c(N)nc(N)nc32)CC[C@@]1(C)CO` showed an IC50 greater than 200 µM.
Work on `Nc1nc2c(ncn2[C@@H]2O[C@H](CO)[C@H](F)[C@@H]2O)c(=O)[nH]1` yielded an IC50 of 17.5 µM.
Compound `CCOc1ncnc2c1ncn2C[C@@H]1C[C@H](CO)c2ccccc21` has an IC50 greater than 200 µM.
`C[C@@]1(CO)O[C@H](c2ccc(N)cc2F)C[C@@H]1O` gave an IC50 greater than 200 µM.
With `OC[C@@H]1CCC[C@H]1n1cnc2c(O)ncnc21` the IC50 was greater than 200 µM.
`O[C@H]1C[C@@H](Cn2cnc3c(-c4ccccc4)ncnc32)c2ccccc21` gave an IC50 greater than 200 µM.
`O=c1[nH]c(=O)n([C@H]2C[C@H](O)[C@@H](CO)O2)cc1C#CCCO` gave an IC50 greater than 200 µM.
For `OC[C@H]1C[C@@H](Cn2cnc3c(NC4CC4)ncnc32)c2ccccc21`, the IC50 was greater than 200 µM.
For `Nc1ncnc2c1ncn2C1C[C@@H](CO)[C@@H](CO)C1` (stereo partly specified), the IC50 was greater than 200 µM.
With `C[C@H](O)C1CC(Cn2nnc3c(N)ncnc32)C1(C)C` (stereo partly specified) the IC50 was greater than 200 µM.
